Experimental data published in ChEMBL document CHEMBL4334421, “Design, synthesis and biological evaluation of β-peptoid-capped HDAC inhibitors with anti-neuroblastoma and anti-glioblastoma activity” (Medchemcomm, 2019).

Tests used:
Histone deacetylase 1 = Histone deacetylase 1 (Homo sapiens, UniProt Q13547); assay: Inhibition of recombinant full length C-terminal FLAG/His-tagged human HDAC1 expressed in baculovirus infected Sf9 cells using Z-Lys(Ac)-AMC as substrate incubated for 90 mins followed by trypsin addition and measured after 30 mins by fluorescence based assay
[1] = target: T1, Protein deacetylase HDAC6 (Homo sapiens, UniProt Q9UBN7); assay: Inhibition of recombinant full length N-terminal GST-tagged human HDAC6 expressed in baculovirus infected Sf9 cells using Z-Lys(Ac)-AMC as substrate incubated for 90 mins followed by trypsin addition and measured after 30 mins by fluorescence based assay
T1 sequence (Q9UBN7 whole entry): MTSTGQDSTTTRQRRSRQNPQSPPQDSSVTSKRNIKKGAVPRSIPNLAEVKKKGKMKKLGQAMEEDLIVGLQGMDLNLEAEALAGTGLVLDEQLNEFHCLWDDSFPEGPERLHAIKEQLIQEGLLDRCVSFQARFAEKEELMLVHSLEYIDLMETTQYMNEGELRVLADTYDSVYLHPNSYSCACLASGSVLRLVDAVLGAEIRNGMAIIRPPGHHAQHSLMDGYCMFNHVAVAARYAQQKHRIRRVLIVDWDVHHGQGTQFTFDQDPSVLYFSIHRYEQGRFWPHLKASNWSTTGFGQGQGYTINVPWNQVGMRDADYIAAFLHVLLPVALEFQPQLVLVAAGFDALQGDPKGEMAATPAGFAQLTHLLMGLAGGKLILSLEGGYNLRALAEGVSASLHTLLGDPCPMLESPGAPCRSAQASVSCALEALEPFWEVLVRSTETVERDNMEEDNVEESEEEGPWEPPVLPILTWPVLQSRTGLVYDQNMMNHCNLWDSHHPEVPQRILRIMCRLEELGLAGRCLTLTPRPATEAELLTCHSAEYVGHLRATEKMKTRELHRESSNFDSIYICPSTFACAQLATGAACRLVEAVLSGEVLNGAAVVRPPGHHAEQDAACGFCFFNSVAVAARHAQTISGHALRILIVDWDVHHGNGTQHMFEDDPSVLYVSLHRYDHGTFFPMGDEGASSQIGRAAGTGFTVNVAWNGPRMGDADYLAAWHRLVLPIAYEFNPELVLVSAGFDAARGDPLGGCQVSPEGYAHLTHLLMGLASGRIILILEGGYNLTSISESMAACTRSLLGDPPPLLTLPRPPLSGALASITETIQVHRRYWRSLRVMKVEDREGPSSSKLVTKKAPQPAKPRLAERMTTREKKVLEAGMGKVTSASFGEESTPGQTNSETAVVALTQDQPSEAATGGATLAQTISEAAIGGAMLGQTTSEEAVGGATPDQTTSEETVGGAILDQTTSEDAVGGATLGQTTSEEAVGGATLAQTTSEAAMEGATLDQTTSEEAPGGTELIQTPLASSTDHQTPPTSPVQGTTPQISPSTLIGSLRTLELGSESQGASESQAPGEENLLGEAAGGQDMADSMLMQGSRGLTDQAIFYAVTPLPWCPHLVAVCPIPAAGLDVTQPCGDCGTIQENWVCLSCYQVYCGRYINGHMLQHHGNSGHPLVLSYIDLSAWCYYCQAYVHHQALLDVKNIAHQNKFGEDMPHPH

CHP-134 = assay: Antiproliferative activity against human CHP134 cells assessed as reduction in cell viability incubated for 72 hrs by cell-titer Glo assay; type: functional, cell-based; details: CHP-134, 72 h
IMR-32 = assay: Antiproliferative activity against human IMR32 cells assessed as reduction in cell viability incubated for 72 hrs by cell-titer Glo assay; type: functional, cell-based; details: IMR-32, 72 h
SK-N-AS = assay: Antiproliferative activity against human SK-N-AS cells assessed as reduction in cell viability incubated for 72 hrs by cell-titer Glo assay; type: functional, cell-based
NB1 = assay: Antiproliferative activity against human NB-1 cells assessed as reduction in cell viability incubated for 72 hrs by cell-titer Glo assay; type: functional, cell-based; details: NB1, 72 h
G55T2 [2] = assay: Antiproliferative activity against human G55T2 cells assessed as reduction in cell viability incubated for 72 hrs by WST-8 assay; type: functional, cell-based; details: G55T2, 72 h
G55T2 [3] = assay: Cell cycle arrest in human G55T2 cells assessed as accumulation in G0/G1 phase at 1 uM incubated for 72 hrs by propidium iodide based flow cytometry (reference value: 49.9 %); type: functional
G55T2 [4] = assay: Cell cycle arrest in human G55T2 cells assessed as accumulation in S phase at 1 uM incubated for 72 hrs by propidium iodide based flow cytometry (reference value: 14.7 %); type: functional
G55T2 [5] = assay: Cell cycle arrest in human G55T2 cells assessed as accumulation in G2/M phase at 1 uM incubated for 72 hrs by propidium iodide based flow cytometry (reference value: 26.8 %); type: functional
G55T2 [6] = assay: Cell cycle arrest in human G55T2 cells assessed as accumulation in subG0 phase at 1 uM incubated for 72 hrs by propidium iodide based flow cytometry (reference value: 4.5 %); type: functional
G55T2 [7] = assay: Cell cycle arrest in human G55T2 cells assessed as accumulation in G0/G1 phase at 3 uM incubated for 72 hrs by propidium iodide based flow cytometry (reference value: 49.9 %); type: functional
G55T2 [8] = assay: Cell cycle arrest in human G55T2 cells assessed as accumulation in S phase at 3 uM incubated for 72 hrs by propidium iodide based flow cytometry (reference value: 14.7 %); type: functional
G55T2 [9] = assay: Cell cycle arrest in human G55T2 cells assessed as accumulation in G2/M phase at 3 uM incubated for 72 hrs by propidium iodide based flow cytometry (reference value: 26.8 %); type: functional
G55T2 [10] = assay: Cell cycle arrest in human G55T2 cells assessed as accumulation in subG0 phase at 3 uM incubated for 72 hrs by propidium iodide based flow cytometry (reference value: 4.5 %); type: functional

Sequence of Histone deacetylase 1 (Q13547 whole entry): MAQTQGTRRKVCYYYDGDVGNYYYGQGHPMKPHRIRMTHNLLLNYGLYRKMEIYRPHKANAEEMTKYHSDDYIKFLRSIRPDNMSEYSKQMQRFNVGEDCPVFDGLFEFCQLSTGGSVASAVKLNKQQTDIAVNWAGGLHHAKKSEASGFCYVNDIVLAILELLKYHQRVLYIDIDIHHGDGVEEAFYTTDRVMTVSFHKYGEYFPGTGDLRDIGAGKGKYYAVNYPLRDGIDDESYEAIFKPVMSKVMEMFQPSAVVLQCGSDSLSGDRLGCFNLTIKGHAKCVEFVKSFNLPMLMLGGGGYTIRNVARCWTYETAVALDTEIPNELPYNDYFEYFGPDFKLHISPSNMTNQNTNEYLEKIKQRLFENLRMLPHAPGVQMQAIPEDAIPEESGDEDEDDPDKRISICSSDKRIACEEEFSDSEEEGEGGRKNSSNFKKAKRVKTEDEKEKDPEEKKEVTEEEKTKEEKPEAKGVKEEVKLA

Row | SMILES | IC50 (Histone deacetylase 1) [nM] | IC50 [1] [nM] | IC50 (SK-N-AS) [nM] | IC50 (CHP-134) [nM] | IC50 (IMR-32) [nM] | IC50 (NB1) [nM] | IC50 (G55T2 [2]) [nM] | Activity (G55T2 [3]) [%] | Activity (G55T2 [4]) [%] | Activity (G55T2 [5]) [%] | Activity (G55T2 [6]) [%] | Activity (G55T2 [7]) [%] | Activity (G55T2 [8]) [%] | Activity (G55T2 [9]) [%] | Activity (G55T2 [10]) [%]
1 | Cc1ccc(NC(=O)CCN(Cc2ccc(C(=O)NO)cc2)C(=O)c2ccccc2)cc1 | 27.5 | 10.7 | 620 | 1160 | 550 | 1480 | 540 |  |  |  |  |  |  |  | 
2 | Cc1cc(C)cc(C(=O)N(CCC(=O)NCc2ccccc2)Cc2ccc(C(=O)NO)cc2)c1 | 128 | 20.5 | 1860 | 2030 | 1390 | 3870 | 4250 |  |  |  |  |  |  |  | 
3 | Cc1ccc(C(=O)N(CCC(=O)NCc2ccccc2)Cc2ccc(C(=O)NO)cc2)cc1 | 16.1 | 16.7 | 910 | 1100 | 630 | 1610 | 690 |  |  |  |  |  |  |  | 
4 | COc1cc(OC)cc(C(=O)N(CCC(=O)NCc2ccccc2)Cc2ccc(C(=O)NO)cc2)c1 | 147 | 26 | 9470 | 12300 | 6040 | 13300 | 14700 |  |  |  |  |  |  |  | 
5 | O=C(CCN(Cc1ccc(C(=O)NO)cc1)C(=O)c1ccccc1)NCc1ccccc1 | 134 | 12.5 | 3310 | 4680 | 2360 | 6660 | 5940 |  |  |  |  |  |  |  | 
6 | Cc1ccc(CNC(=O)CCN(Cc2ccc(C(=O)NO)cc2)C(=O)c2ccc(N(C)C)cc2)cc1 | 27.8 | 14.4 | 340 | 420 | 260 | 700 | 430 |  |  |  |  |  |  |  | 
7 | CN(C)c1ccc(C(=O)N(CCC(=O)NCc2ccc(Cl)cc2)Cc2ccc(C(=O)NO)cc2)cc1 | 21.2 | 10 | 390 | 610 | 310 | 850 | 460 |  |  |  |  |  |  |  | 
8 | O=C(CCCCCCC(=O)Nc1ccccc1)NO [VORINOSTAT] |  |  |  |  |  |  |  |  |  |  |  | 31.3 | 8.1 | 28.9 | 24.8

The next lines start with results.

Row | IC50 (Histone deacetylase 1) [nM] | IC50 [1] [nM] | IC50 (SK-N-AS) [nM] | SMILES | IC50 (CHP-134) [nM] | IC50 (IMR-32) [nM] | IC50 (NB1) [nM] | IC50 (G55T2 [2]) [nM] | Activity (G55T2 [3]) [%] | Activity (G55T2 [4]) [%] | Activity (G55T2 [5]) [%] | Activity (G55T2 [6]) [%] | Activity (G55T2 [7]) [%] | Activity (G55T2 [8]) [%] | Activity (G55T2 [9]) [%] | Activity (G55T2 [10]) [%]
9 | 2100 |  |  | O=C(NO)c1ccc(CC(=O)N(CCO)c2ccccc2)cc1 |  |  |  |  |  |  |  |  |  |  |  | 
10 | 43 | 31.1 | 220 | Cc1ccc(NC(=O)CCN(Cc2ccc(C(=O)NO)cc2)C(=O)c2cc(C)cc(C)c2)cc1 | 380 | 210 | 670 | 370 | 52.3 | 13.2 | 29.1 | 3.5 | 30.2 | 9.8 | 31.1 | 23.3
11 | 14.7 | 14.8 | 1420 | CN(C)c1ccc(C(=O)N(CCC(=O)NCc2ccccc2)Cc2ccc(C(=O)NO)cc2)cc1 | 1160 | 840 | 1720 | 1150 |  |  |  |  |  |  |  | 
12 | 12.9 | 19.5 | 400 | Cc1ccc(NC(=O)CCN(Cc2ccc(C(=O)NO)cc2)C(=O)c2ccc(N(C)C)cc2)cc1 | 540 | 300 | 660 | 330 |  |  |  |  |  |  |  | 
13 | 41.9 | 25.3 | 1740 | COc1ccc(C(=O)N(CCC(=O)NCc2ccccc2)Cc2ccc(C(=O)NO)cc2)cc1 | 1900 | 1090 | 2520 | 3490 |  |  |  |  |  |  |  | 
